Reference: US6613762B2, “Gambogic acid, analogs and derivatives as activators of caspases and inducers of apoptosis” (Cytovia, Inc., priority 1999, dated 2003)
Read-outs that look alike come from different tables or passages of the source.

What was measured:
[1] = tested on: caspase cascade, human breast cancer cell line ZR-75-1; test: Caspase cascade activation assay (Example 90), ZR-75-1; assay type: cell-based; conditions: ratio of net RFU of test compound to control; 24 h incubation, 0.16 to 10 μM
Method: (§1) Human breast cancer cell lines T-47D and ZR-75-1, human prostate cancer cell line PC-3, human leukemia cancer cell line HL-60 and human non-transformed fibroblast cell line MRC-5 cells were grown according to media component mixtures designated by The American Type Culture Collection+10% FCS (Life Technologies, Inc.), in a 5% CO2-95% humidity incubator at 37° C. T-47D, ZR-75-1 and PC-3 cells were maintained at a cell density between 30 and 80% confluency and for HL-60 at a cell density of 0.1 to 0.6×10^6 cells/m. Cells were harvested at 600× g and resuspended at 0.65×10^6 cells/ml into appropriate media +10% FCS. […] The samples were mixed by agitation and incubated at room temperature.
(§2) The EC50 (nM) was determined by a sigmoidal dose-response calculation (Prism 2.0, GraphPad Software Inc.).

[2] = Inhibition of cell proliferation (GI50) and cell death (LC50), MRC-5; assay type: cell-based; conditions: human; MRC-5, 48 h; read-out: LC50 (dose for 50% cell death)
Method: T47D, ZR-75-1, PC-3, human prostate cancer cell line DU-145, human non-small cell lung cancer cell line A-549, human small cell lung cancer cell line SHP-77, HL-60 and MRC-5 cells were grown and harvested as in Example 90. […] The samples were mixed by agitation and incubated at 37° C. for 2-4 h in a 5% CO2-95% humidity incubator. […] This determines the possible background absorbance of the test compounds. No absorbance for gambogic acid or its analogs or derivatives was found at 490 nm. After the 2-4 h incubation, the samples were read for absorbance as above (ATest).
Baseline for GI50 (dose for 50% inhibition of cell proliferation) and LC50 (dose for 50% cell death) of initial cell numbers was determined by adding an aliquot of 90 μl of cells or 90 μl of media, respectively, to wells of a 96-well microtiter plate containing 10 μl of a 10% DMSO in RPMI-1640 media solution. […] The samples were mixed by agitation and incubated at 37° C. for 2-4 h in a 5% CO2-95% humidity incubator. Absorbance was read as above, (AT=0) defining absorbance for initial cell number used as baseline in GI50 determinations and (Amin) defining absorbance for media alone used as baseline in LC50 determinations.
GI50 (dose for 50% inhibition of cell proliferation)
LC50 (dose for 50% cell death)
50=100×[(ATest−Amin)/(AT=0−Amin)]

[3] = tested on: caspase cascade, human non-transformed fibroblast cell line MRC-5; test: Caspase cascade activation assay (Example 90), MRC-5; assay type: cell-based; conditions: ratio of net RFU of test compound to control; 24 h incubation, 0.16 to 10 μM
Method: as §1, §2

caspase cascade = test: as above; assay type: cell-based, human; conditions: human
Method: as §1, §2

[4] = tested on: caspase cascade, human breast cancer cell line T-47D; test: Caspase cascade activation assay (Example 90), T-47D; assay type: cell-based; conditions: ratio of net RFU of test compound to control; 24 h incubation, 0.16 to 10 μM
Method: as §1, §2

[5] = tested on: caspase cascade, human leukemia cancer cell line HL-60; test: Caspase cascade activation assay (Example 90), HL-60; assay type: cell-based; conditions: ratio of net RFU of test compound to control; 24 h incubation, 0.16 to 10 μM
Method: as §1, §2

[6] = tested on: caspase cascade, human prostate cancer cell line PC-3; test: Caspase cascade activation assay (Example 90), PC-3; assay type: cell-based; conditions: for PC-3 Ratio (caspase activity): ratio of net RFU of test compound to control, 24 h incubation, 0.16 to 10 μM
Method: as §1, §2

[7] = tested on: poly(ADP)ribose polymerase (PARP) cleavage, T47D cells; test: PARP cleavage western blot, T47D cells; assay type: cell-based, human; conditions: 1 μM staurosporine, 2 h and 4 h (FIG. 5C)
Method: (§3) Cleavage of the enzyme poly(ADP)ribose polymerase (PARP) by caspase-3 and related proteases is considered to be one of the molecular hallmarks of caspase-mediated apoptosis. Therefore, the ability of gambogic acid to induce PARP cleavage in four different human tumor cell lines (Jurkat cells, HL-60 cells, T47D cells and PC3 cells) was determined.
(§4) Cells were cultured in complete growth medium containing 10% FBS and treated with gambogic acid at concentrations of 2.5 μM or 5 μM for 2 to 4 h. Control cultures were treated with a drug vehicle (DMSO), or the well-characterized apoptosis inducer, staurosporine. At the end of the apoptosis induction period, the cells were harvested, washed once with PBS, quick-frozen on dry ice, and stored at −80° C. The cells were then lysed in a standard immunoblotting lysis buffer and samples of the lysates were electrophoresed on 4% to 20% gradient polyacrylamide gels. The proteins in the gels were then transferred to PVDF membranes and probed with a commercially-available rabbit polyclonal antibody to PARP.

[8] = tested on: poly(ADP)ribose polymerase (PARP) cleavage, PC3 cells; test: PARP cleavage western blot, PC3 cells; assay type: cell-based, human; conditions: 1 μM staurosporine, 2 h and 4 h (FIG. 5D)
Method: as §3, §4

| EC50 at 24 h (caspase cascade) [nM] | Structure (SMILES) | ZR-75-1 Ratio (caspase activity) [1] | CC50 at 48 h [2] [nM] | MRC-5 Ratio (caspase activity) [3] | EC50 at 24 h (caspase cascade; 24 h incubation, sigmoidal dose-response, read-out: MRC-5 EC50 (caspase activation potency)) [nM] | T-47D Ratio (caspase activity) [4] | HL-60 Ratio (caspase activity) [5] | EC50 ([6]; Homo sapiens, 24 h, read-out: PC-3 EC50 (caspase activation potency)) [nM] | PC-3 Ratio (caspase activity) [6] | PARP cleavage [7] | PARP cleavage [8] |
| --- | --- | --- | --- | --- | --- | --- | --- | --- | --- | --- | --- |
|  | COC(=O)/C(C)=C\CC12OC(C)(C)C3CC(C=C4C(=O)c5c(O)c6c(c(CC=C(C)C)c5OC431)OC(C)(CCC=C(C)C)C=C6)C2=O (stereo not drawn) [Example 4, Methyl Gambogate] | 14.9 | 500 | 27.8 | 501 | 16.8 | 7.7 | 1330 | 3.9 |  |  |
| 1200 | COc1c2c(c(CC=C(C)C)c3c1C(=O)C1=CC4CC5C(C)(C)OC(C/C=C(/C)C(=O)N6CCCCC6)(C4=O)C15O3)OC(C)(CCC=C(C)C)C=C2 (stereo not drawn) [Example 7, 6-Methoxy-gambogyl Piperidine] | 13.4 |  | 9.4 |  | 14.4 |  |  | 2.3 |  |  |
|  | CN[C@@H]1C[C@H]2O[C@@](C)([C@@H]1OC)n1c3ccccc3c3c4c(c5c6ccccc6n2c5c31)C(=O)NC4 [staurosporine, reference compound] |  |  |  |  |  |  |  |  | no cleavage of PARP | no cleavage of PARP |
